Consider ten compounds from PubChem BioAssay (NCI).

Where “and” joins values, the source holds several entries; their conditions need not be identical. Equal values may be shown once.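 In this assay, cells in 96-well plates receive the compound at five concentrations for 48 hours. Endpoints are linearly interpolated between the surrounding concentrations. GI50 marks 50% less growth. TGI: concentration producing complete growth inhibition.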

Test systems include 786-0 renal; HOP-92 NSCLC; HT29 colon; OVCAR-4 ovarian; SK-MEL-2 melanoma; SK-OV-3 ovarian; SN12C renal; SNB-75 CNS; UO-31 renal; K-562 leukemia.
Common to all, as to assay: DTP human tumour cell line panel, 48 h

For orientation: GI50 means the concentration at which growth is held to half of that of the control. Usually TGI stands for the concentration giving total growth inhibition. Low values mean more potent growth arrest, high ones less potent growth arrest. As to `CCCCNc1ncnc2c1cnn2-c1ccccc1`, the GI50 is 8.9 µM in the assay with 786-0 renal; 3.21 µM in the assay on HOP-92 NSCLC; 0.565 µM in the assay with HT29 colon; 18.3 µM with OVCAR-4 ovarian; 2.82 µM in the assay with SK-MEL-2 melanoma; 3.2 µM with SK-OV-3 ovarian. For the same compound, the values for the GI50 in the assay with SN12C renal, with SNB-75 CNS and in the assay with UO-31 renal were 6.18 µM, 2.11 µM and 7.44 µM, respectively. In addition, the TGI with 786-0 renal was 53 µM; in the assay with HOP-92 NSCLC, 55.6 µM; in the assay with HT29 colon, 13.8 µM; in the assay on OVCAR-4 ovarian it was > 100 µM; with SK-MEL-2 melanoma it was > 100 µM; with SK-OV-3 ovarian it was 31.2 µM. The results for the TGI in the assay on SN12C renal, with SNB-75 CNS and in the assay with UO-31 renal were > 100 µM, 39.9 µM and 71.2 µM, respectively.
With `CCN(CC)CCOC(COc1cc(C)cc(C)c1)COc1cc(C)cc(C)c1`, the GI50 with 786-0 renal is 3.2 µM; in the assay on OVCAR-4 ovarian, 2.33 µM; in the assay on SK-MEL-2 melanoma it was 11.6 µM; in the assay with SK-OV-3 ovarian, 4.86 µM; in the assay on SN12C renal, 2.62 µM; in the assay on SNB-75 CNS, 5.75 µM. In addition, the GI50 in the assay with UO-31 renal was 2.19 µM. The TGI in the assay on 786-0 renal amounted to 14.5 µM; with OVCAR-4 ovarian, 13.7 µM; in the assay on SK-MEL-2 melanoma, 25.8 µM; in the assay on SK-OV-3 ovarian, 17.7 µM; in the assay with SN12C renal, 15.6 µM; in the assay on SNB-75 CNS, 20.8 µM. The same compound came in with a TGI with UO-31 renal of 13 µM.
As for `CC1(C)CC(O)CC(C)(C)N1O`, the TGI in the assay on 786-0 renal, with HT29 colon, in the assay on K-562 leukemia, in the assay on OVCAR-4 ovarian, in the assay with SK-MEL-2 melanoma and in the assay with SK-OV-3 ovarian was > 100 µM each time. Further, the TGI with SN12C renal, with SNB-75 CNS and in the assay with UO-31 renal was > 100 µM throughout. Moreover, in the assay on OVCAR-4 ovarian, the GI50 was > 100 µM.
Take `[Br][Pb]([c]1ccccc1)([c]1ccccc1)[c]1ccccc1`: the GI50 was 0.153 µM in the assay with 786-0 renal; 0.239 µM in the assay with HT29 colon; 0.139 µM in the assay with K-562 leukemia; 0.218 µM with SK-MEL-2 melanoma; 0.401 µM in the assay with SK-OV-3 ovarian; 0.228 µM in the assay on SN12C renal. The GI50 is 0.0993 µM with SNB-75 CNS and 0.141 µM with UO-31 renal. The TGI in the assay on 786-0 renal was 0.309 µM; with HT29 colon, 0.508 µM; in the assay with SK-MEL-2 melanoma, 0.539 µM; in the assay on SK-OV-3 ovarian, 1.51 µM; in the assay on SN12C renal, 0.677 µM; with SNB-75 CNS, 0.389 µM. In the assay with UO-31 renal, this compound displayed a total growth inhibition concentration (TGI) of 0.279 µM.
With `CCCN1C(=O)/C(=C/c2ccc(SC(F)(F)F)cc2)SC1=Nc1ccc(OC)cc1`, the GI50 in the assay with 786-0 renal is 9.56 µM; in the assay on HOP-92 NSCLC it was 6.6 µM; with HT29 colon, 17.6 µM; with K-562 leukemia, 23.1 µM; in the assay with SK-MEL-2 melanoma it was 36.5 µM; in the assay with SK-OV-3 ovarian, 15.2 µM. Also, the values for the GI50 in the assay with SN12C renal and with UO-31 renal were 13.6 µM and 8.2 µM, respectively. For the same compound, the TGI with 786-0 renal is 25.6 µM; in the assay with HOP-92 NSCLC it was 19.8 µM; in the assay with HT29 colon, > 50 µM; in the assay with K-562 leukemia, > 50 µM; with SK-MEL-2 melanoma, > 50 µM; in the assay on SK-OV-3 ovarian it was > 50 µM. Also, the figures for the TGI in the assay on SN12C renal and in the assay with UO-31 renal were > 50 µM and 17.1 µM, respectively.
With `COC(=O)[C@@]12OC[C@]34[C@H]([C@@H](O)[C@@H]1O)[C@@]1(C)CC(=O)C(O)=C(C)[C@@H]1C[C@H]3OC(=O)[C@H](OC(=O)/C=C(\C)C(C)C)[C@@H]24`, the GI50 in the assay with 786-0 renal is 0.0217 µM; in the assay with OVCAR-4 ovarian, 0.00334 µM; in the assay with SK-MEL-2 melanoma it was 0.00517 µM. For the same compound, the TGI is 0.072 µM and < 0.012 µM and 0.0429 µM with 786-0 renal; 0.0378 µM and 0.0921 µM with HOP-92 NSCLC; 0.0161 µM and 0.0718 µM in the assay on HT29 colon; 0.017 µM and 0.0225 µM in the assay on OVCAR-4 ovarian; 0.0195 µM and 0.0303 µM in the assay on SK-MEL-2 melanoma; 0.0254 µM and 0.175 µM with SK-OV-3 ovarian. The TGI with SN12C renal is 0.0582 µM and 0.0317 µM and 0.102 µM; in the assay with SNB-75 CNS, 0.0186 µM and 0.0203 µM; in the assay on UO-31 renal, 0.0834 µM and 0.142 µM and 0.405 µM.
`C[N+](C)(C)CC1CCC(C[N+](C)(C)C)C1=NO` (centres undefined): the TGI in the assay on 786-0 renal, in the assay with HT29 colon, in the assay on K-562 leukemia, in the assay with OVCAR-4 ovarian, in the assay on SK-MEL-2 melanoma and in the assay with SK-OV-3 ovarian was > 100 µM each time. In addition, the TGI in the assay with SN12C renal, in the assay with SNB-75 CNS and with UO-31 renal was > 100 µM in each case.
For `COc1cc(C2CC(c3ccccc3)=NN2C=O)ccc1Oc1ccnc2cc(Cl)ccc12` (centres undefined), the GI50 was 11.5 µM with 786-0 renal; 1.5 µM with HOP-92 NSCLC; > 100 µM in the assay on HT29 colon; 4.17 µM in the assay with OVCAR-4 ovarian; 8.68 µM in the assay on SK-MEL-2 melanoma; 4.56 µM in the assay on SK-OV-3 ovarian. Further, the GI50 with SN12C renal was > 100 µM; with SNB-75 CNS it was 3.31 µM; with UO-31 renal, 13.5 µM. Besides, the TGI is 73.7 µM with 786-0 renal; 13.6 µM with HOP-92 NSCLC; > 100 µM in the assay on HT29 colon; 34 µM with OVCAR-4 ovarian; 38.6 µM in the assay on SK-MEL-2 melanoma; > 100 µM with SK-OV-3 ovarian. The values for the TGI in the assay on SN12C renal, in the assay on SNB-75 CNS and in the assay with UO-31 renal were > 100 µM, 21 µM and > 100 µM, respectively.
With `OC12CCC3(OC4CCCCO4)c4ccccc4C3C1c1ccccc12` (centres undefined), the TGI in the assay on 786-0 renal, in the assay with HT29 colon, with K-562 leukemia, in the assay with OVCAR-4 ovarian, with SK-MEL-2 melanoma and in the assay with SK-OV-3 ovarian was > 100 µM throughout. Moreover, the TGI with SN12C renal, in the assay with SNB-75 CNS and with UO-31 renal was > 100 µM each time.
As for `C=CCC(N[C@@H](CO)c1ccccc1)c1ccc2ccccc2n1` (some centres undefined), the GI50 with 786-0 renal is > 100 µM; in the assay on HT29 colon, > 100 µM; in the assay on K-562 leukemia it was 36.2 µM; with OVCAR-4 ovarian, > 100 µM; in the assay with SK-MEL-2 melanoma, > 100 µM; with SK-OV-3 ovarian, > 100 µM. Moreover, the GI50 was 67.5 µM with SN12C renal, 51.2 µM in the assay with SNB-75 CNS and 88.2 µM in the assay on UO-31 renal. Further, the TGI with 786-0 renal, in the assay with HT29 colon, in the assay on K-562 leukemia, in the assay with OVCAR-4 ovarian, with SK-MEL-2 melanoma and in the assay with SK-OV-3 ovarian was > 100 µM in each case. The TGI with SN12C renal, with SNB-75 CNS and with UO-31 renal was > 100 µM each time.
